According to publication PMC6792352, “Limited Chemical Structural Diversity Found to Modulate Thyroid Hormone Receptor in the Tox21 Chemical Library” (Environmental Health Perspectives, 2019):
Structures can show the parent of a compound that is named as a salt. Starred links: 1 amine or outer side, 2 acyl side, 3 side chain; linkers in the order of their positions; H or OH if unused. Positions of bridges follow the written chain, without caps; N, C: chain ends. Non-standard residues stand in square brackets, D forms with d. Residues, ends and D or L forms follow the SMILES beside them. *: point of attachment. X1 = NC1=N[C@@H]([C@H](N[*:1])C(=O)[*:2])C[C@H](O)N1; ΔAla(Z-3-ureido) = NC(=O)N/C=C(\N)C(=O)O; β3hOrn = NCCC[C@H](N)CC(=O)*; Dap = NC[C@H](N)C(=O)O

Assay: in vitro
Conditions: rat, gh3-tre-luc cells

Row | SMILES | CC50 at 24 h (AC50 (uM) modified / 1000) [µM] | other results
1 | CNC(=O)c1cc(Oc2ccc(NC(=O)Nc3ccc(Cl)c(C(F)(F)F)c3)cc2)ccn1 [Sorafenib tosylate] | 9.89 | 
2 | CC1=CC(C)C(C=O)C(C)C1 (stereo not drawn) [Isocyclocitral] | > 90 | 
3 | O=S(=O)(O)C(F)(F)C(F)(F)C(F)(F)C(F)(F)C(F)(F)C(F)(F)C(F)(F)C(F)(F)F [Potassium perfluorooctanesulfonate] |  | CC50 at 24 h (AC50 (uM) modified / 1000, Tox21_110001=Tox21_300544, viability, 1 nM T3 present, 24 h): 49.4 µM
4 | CC(Cl)=CCCl [1,3-Dichloro-2-butene] | > 90 | 
5 | Cc1ccc2c(n1)Oc1ccc(C(C)C(=O)OCC(=O)N(C)C)cc1C2 (stereo not drawn) [Mepranoprofen arbamel] | > 50 | 
6 | CN[C@@H](C)Cc1ccccc1 [S-(+)-Methamphetamine hydrochloride] | > 90 | 
7 | Cc1nc(C)c(C)nc1C [Tetramethylpyrazine] | > 90 | 
8 | NC(=O)c1cnccn1 [Pyrazinamide] | > 90 | 
9 | O=[N+]([O-])C(Br)Br [Dibromonitromethane] |  | CC50 at 24 h (AC50 (uM) modified / 1000, Tox21_110001=Tox21_200899, viability, 1 nM T3 present, 24 h): > 90 µM
10 | CCCc1ccc(O)cc1 [4-Propylphenol] | > 90 | 
11 | CC(C)C(=O)O [2-Methylpropanoic acid] | > 90 | 
12 | CC(C)(C)c1cccc(C(C)(C)C)c1O [2,6-Di-tert-butylphenol] | > 90 | 
13 | OC[C@H]1O[C@@H](O[C@H]2[C@H](O)[C@@H](O)C(O)O[C@@H]2CO)[C@H](O)[C@@H](O)[C@@H]1O (stereo partly drawn) [Cellobiose] | > 50 | 
14 | CC(C)C[C@H](NC(=O)[C@@H](O)[C@H](N)Cc1ccccc1)C(=O)O [Ubenimex hydrochloride] | 1.62 | 
15 | CC(C)COC(=O)COc1ccc(Cl)cc1Cl [2,4-D-isobutyl] | > 90 | 
16 | O=C1CCO1 [beta-Propiolactone] |  | CC50 at 24 h (AC50 (uM) modified / 1000, Tox21_110001=Tox21_111026, viability, 1 nM T3 present, 24 h): > 50 µM
17 | CNC(=O)N(c1ccccc1)c1ccccc1 [N'-Methyl-N,N-diphenylurea] | > 90 | 
18 | CC(C)C[P+](C)(CC(C)C)CC(C)C [Triisobutylmethylphosphonium tosylate] | > 90 | 
19 | c1ccc(COCc2ccccc2)cc1 [Dibenzyl ether] | > 100 | 
20 | NC[C@H](O)c1ccc(O)c(O)c1 [Norepinephrine] | 57.7 | 
21 | O=C1CCc2ccc(OCCCCN3CCN(c4cccc(Cl)c4Cl)CC3)cc2N1 [Aripiprazole] | 11.8 | 
22 | N=C(N)NCCC[C@H](N)C(=O)O [L-Arginine] | > 50 | 
23 | CN1CCN(CCCN2c3ccccc3Sc3ccc(S(=O)(=O)N(C)C)cc32)CC1 [Thioproperazine dimethanesulfonate] | 14.2 | 
24 | CC(C)N(C)C [Dimethylisopropylamine] | > 90 | 

Row | SMILES | CC50 at 24 h (AC50 (uM) modified / 1000) [µM] | other results
25 | Cc1ccc(-c2c(Cl)nc(C#N)n2S(=O)(=O)N(C)C)cc1 [Cyazofamid] | 40.3 | 
26 | Cn1cnc2c1c(=O)[nH]c(=O)n2C [Theobromine] | > 40 | 
27 | COC(C)(C)CCCC(C)CC=O (stereo not drawn) [7-Methoxy-3,7-dimethyloctanal] | > 90 | 
28 | C[C@H](CCCC(C)(C)O)[C@H]1CC[C@H]2[C@@H]3CC=C4C[C@@H](O)CC[C@]4(C)[C@H]3CC[C@]12C [25-Hydroxycholesterol] | > 50 | 
29 | O=C1OC(=O)c2c(Br)c(Br)c(Br)c(Br)c21 [Tetrabromophthalic anhydride] | > 90 | 
30 | CCC[C@@H]1C[C@@H](C(=O)N[C@@H]([C@H]2O[C@H](SC)[C@H](OP(=O)(O)O)[C@@H](O)[C@H]2O)[C@H](C)Cl)N(C)C1 [Clindamycin phosphate] | > 50 | 
31 | CCCOC(C)=O [Propyl acetate] | > 90 | 
32 | COCCOCCOCCO [2-[2-(2-Methoxyethoxy)ethoxy]ethanol] | > 90 | 
33 | CN=C(N)NC(=O)Nc1c(C)cccc1C [Lidamidine] | > 50 | 
34 | O=NN(O)c1ccccc1 [Cupferron] |  | CC50 at 24 h (AC50 (uM) modified / 1000, Tox21_110001=Tox21_201493, viability, 1 nM T3 present, 24 h): > 90 µM
35 | CCN(CC)CCOc1ccccc1C(=O)CCc1ccccc1 [Etafenone] | 18.1 | 
36 | N#Cc1ccncc1 [4-Pyridinecarbonitrile] |  | CC50 at 24 h (AC50 (uM) modified / 1000, Tox21_110001=Tox21_300741, viability, 1 nM T3 present, 24 h): > 100 µM
37 | CN(C(=O)CO)c1c(I)c(C(=O)NCC(O)CO)c(I)c(C(=O)NCC(O)CO)c1I (stereo not drawn) [Iomeprol] | > 50 | 
38 | NCCC[C@H](N)CC(=O)N[C@H]1CNC(=O)[C@H]([C@H]2C[C@H](O)NC(N)=N2)NC(=O)/C(=C/NC(N)=O)NC(=O)[C@H](CO)NC(=O)[C@H](CO)NC1=O [Viomycin sulfate] (β3hOrn-[Dap]SS[ΔAla(Z-3-ureido)][X1]; lactam 1-C) | > 50 | 
39 | C/C=C/C(=O)CCCC [2-Octen-4-one] | > 90 | 
40 | O=C(O[C@H]1C[C@H]2CC[C@@H](C1)[N+]21CCCC1)C(O)(c1ccccc1)c1ccccc1 [Trospium chloride] | > 50 | 
41 | CC(=O)c1ccc2c(c1)[C@H](NC(=O)c1ccc(F)cc1)[C@@H](O)C(C)(C)O2 [Carabersat] | 51.8 | 
42 | CCc1c(C)[nH]c2c1C(=O)C(CN1CCOCC1)CC2 (stereo not drawn) [Molindone hydrochloride] | > 20 | 
43 | CCC(=O)OC/C=C/c1ccccc1 [(2E)-3-Phenylprop-2-en-1-yl propanoate] | > 90 | 
44 | CC1(C)S[C@@H]2[C@H](NC(=O)[C@H](NC(=O)N3CCN(S(C)(=O)=O)C3=O)c3ccccc3)C(=O)N2[C@H]1C(=O)O [Mezlocillin] | > 50 | 
45 | Cc1c([N+](=O)[O-])cc2c(c1[N+](=O)[O-])C(C)(C)CC2(C)C [1,1,3,3,5-Pentamethyl-4,6-dinitro-2,3-dihydro-1H-indene] |  | CC50 at 24 h (AC50 (uM) modified / 1000, Tox21_110001=Tox21_302237, viability, 1 nM T3 present, 24 h): 74.8 µM
46 | CCOP(=S)(OCC)OP(=S)(OCC)OCC [Sulfotepp] |  | CC50 at 24 h (AC50 (uM) modified / 1000, Tox21_110001=Tox21_201756, viability, 1 nM T3 present, 24 h): > 90 µM
47 | CCCCOCCOCCOCCOCCO [3,6,9,12-Tetraoxahexadecan-1-ol] | > 90 | 
48 | Cc1cc(O)c2c(O)c3c(O)cccc3cc2c1 [Chrysarobin] | > 50 | 

Row | SMILES | CC50 at 24 h (AC50 (uM) modified / 1000) [µM] | other results
49 | COc1cc([S+](C)[O-])ccc1-c1nc2ncccc2[nH]1 (stereo not drawn) [Sulmazole] | > 50 | 
50 | C[N+]1(C)[C@@H]2CC(OC(=O)[C@H](CO)c3ccccc3)C[C@H]1[C@@H]1O[C@@H]12 (stereo partly drawn) [Scopolamine methylbromide] | > 50 | 
51 | CC[N+](C)(C)Cc1ccccc1Br [Bretylium tosylate] | > 20 | 
52 | OCC(O)COc1ccc(Cl)cc1 (stereo not drawn) [Chlorphenesin] | > 50 | 
53 | CC1(C)[C@@H]2CC[C@@]1(C)[C@H](O)C2 [Isoborneol] | > 90 | 
54 | CC(=O)OC[C@H]1O[C@@](COC(C)=O)(O[C@H]2O[C@H](COC(C)=O)[C@@H](OC(C)=O)[C@H](OC(C)=O)[C@H]2OC(C)=O)[C@@H](OC(C)=O)[C@@H]1OC(C)=O [Sucrose octaacetate] | > 70 | 
55 | C[C@H]1CC[C@]2(NC1)O[C@H]1C[C@H]3[C@@H]4CC[C@H]5C[C@@H](O)CC[C@]5(C)[C@H]4CC[C@]3(C)[C@H]1[C@@H]2C [Tomatidine hydrochloride] | 47 | 
56 | O=c1c(O)c(-c2ccc(O)c(O)c2)oc2cc(O)cc(O)c12 [Quercetin dihydrate] | 57 | 
57 | CC=C1CC2C=CC1C2 (stereo not drawn) [5-Ethylidene-2-norbornene] | > 90 | 
58 | CCC(Cl)[N+](=O)[O-] (stereo not drawn) [1-Chloro-1-nitropropane] | > 100 | 
59 | C#C[C@]1(O)CC[C@H]2[C@@H]3CCC4=CC(=O)CC[C@@H]4[C@H]3CC[C@@]21CC [Levonorgestrel] | > 90 | 
60 | CCCCCOC(=O)CCC [Pentyl butyrate] | > 90 | 
61 | COC(=O)[C@@H](N)Cc1ccc(O)c(O)c1 [Methyl L-DOPA hydrochloride] | 19.9 | 
62 | CC(Cl)C(Cl)Cl (stereo not drawn) [1,1,2-Trichloropropane] | > 90 | 
63 | CC1OC(=O)C(C)OC1=O (stereo not drawn) [3,6-Dimethyl-2,5-dioxo-1,4-dioxane] | > 90 | 
64 | CCCCCCCCCCOC(=O)c1ccccc1C(=O)OCCCCCCCCCC [Didecyl phthalate] | > 90 | 
65 | C[C@]12CC[C@@H]3c4ccc(O)cc4CC[C@H]3[C@@H]1CC[C@@H]2OP(=O)(O)O [Estradiol phosphate] | > 50 | 
66 | CCCCCCCCCCCCCCCC [Hexadecane] | > 90 | 
67 | CCN(CC)C(=O)N1CCN(C)CC1 [Diethylcarbamazine citrate] | > 20 | 
68 | Oc1ccccc1Cl [2-Chlorophenol] | > 90 | 
69 | CCNc1nc(Cl)nc(NCC)n1 [Simazine] | > 90 | 
70 | CCN(CC)CCNC(=O)c1cc(Cl)c(N)cc1OC [Metoclopramide] | > 50 | 
71 | CC(C)[N+](C)(CCC(C(N)=O)(c1ccccc1)c1ccccc1)C(C)C [Isopropamide] | > 20 | 
72 | CC(C)CCCCCOC(=O)COc1ccc(Cl)cc1Cl [2,4-D isooctyl ester] | > 90 | 
